From ChEMBL document CHEMBL4342418, “1,2,3-Triazole-containing hybrids as potential anticancer agents: Current developments, action mechanisms and structure-activity relationships” (Eur J Med Chem, 2019)
In brackets after ≈: the same amount, converted by molar mass.

What was measured:
MDA-MB-231 [1] = assay: Antiproliferative activity against human MDA-MB-231 cells by SRB assay; type: functional
[2] = Antiproliferative activity against human MiaPaCa cells by SRB assay; type: functional; details: MIA PaCa-2
IMR-32 = assay: Antiproliferative activity against human IMR32 cells by SRB assay; type: functional
PC-3 [3] = assay: Antiproliferative activity against human PC3 cells assessed as reduction in cell viability after 24 hrs by MTT assay; type: functional, cell-based; details: PC-3, 24 h
HepG2 [4] = assay: Antiproliferative activity against human HepG2 cells assessed as reduction in cell viability after 24 hrs by MTT assay; type: functional, cell-based; details: HepG2, 24 h
HCT-116 [5] = assay: Antiproliferative activity against human HCT116 cells assessed as reduction in cell viability after 24 hrs by MTT assay; type: functional, cell-based; details: HCT-116, 24 h
MCF7 [6] = assay: Antiproliferative activity against human MCF7 cells assessed as reduction in cell viability after 24 hrs by MTT assay; type: functional, cell-based; details: MCF7, 24 h
[7] = Cytotoxicity against human HEK cells assessed as reduction in cell viability after 24 hrs by MTT assay; type: cell-based; details: HEK293, 24 h
Erythrocyte = assay: Cytotoxicity against human RBC cells assessed as reduction in cell viability after 24 hrs by MTT assay; type: cell-based
PBMC = assay: Cytotoxicity against human PBMC cells assessed as reduction in cell viability after 24 hrs by MTT assay; type: cell-based
MCF7 [8] = assay: cells; type: functional, cell-based; details: Homo sapiens
Description: Antiproliferative activity against human MCF7 cells by MTT assay

MDA-MB-231 [9] = assay: Antiproliferative activity against human MDA-MB-231 cells assessed as reduction in cell viability after 24 hrs by MTT assay; type: functional, cell-based; details: MDA-MB-231, 24 h
HepG2 [10] = assay: Antiproliferative activity against human HepG2 cells by MTT assay; type: functional, cell-based
A549 [11] = assay: Antiproliferative activity against human A549 cells assessed as reduction in cell viability after 48 hrs by MTT assay; type: functional, cell-based; details: A549, 48 h
A549 [12] = assay: cells; type: functional, cell-based; details: Homo sapiens
Description: Antiproliferative activity against human A549 cells by MTT assay

HBL-100 = assay: Antiproliferative activity against human HBL100 cells by MTT assay; type: functional, cell-based
HeLa [13] = assay: Antiproliferative activity against human HeLa cells by MTT assay; type: functional, cell-based
SW1573 = assay: Antiproliferative activity against human SW1573 cells by MTT assay; type: functional, cell-based
T47D = assay: Antiproliferative activity against human T47D cells by MTT assay; type: functional, cell-based
WiDr = assay: Antiproliferative activity against human WiDr cells by MTT assay; type: functional, cell-based
hTERT-BJ = assay: Cytotoxicity activity against human hTERT-BJ cells by MTT assay; type: cell-based
HeLa [14] = assay: Antiproliferative activity against human HeLa cells assessed as reduction in cell viability after 24 hrs by MTT assay; type: functional, cell-based
MCF7 [15] = assay: Antiproliferative activity against human MCF7 cells assessed as reduction in cell viability after 72 hrs by MTT assay; type: functional, cell-based; details: MCF7, 72 h
HT-29 = assay: Antiproliferative activity against human HT-29 cells assessed as reduction in cell viability after 48 hrs by MTT assay; type: functional, cell-based; details: HT-29, 48 h
PC-3 [16] = assay: cells; type: functional, cell-based; details: Homo sapiens, PC-3, 48 h
Description: Antiproliferative activity against human PC3 cells assessed as reduction in cell viability after 48 hrs by MTT assay

U-87 MG = assay: Antiproliferative activity against human U87MG cells assessed as reduction in cell viability after 48 hrs by MTT assay; type: functional, cell-based, U-87MG ATCC
MGC-803 = assay: Antiproliferative activity against human MGC803 cells by MTT assay; type: functional, cell-based
SK-N-SH = assay: Antiproliferative activity against human SK-N-SH cells by MTT assay; type: functional, cell-based
A549 [17] = assay: Antitumour activity against human A549 cells xenografted in Kunming mice assessed as tumour growth inhibition at 20 mg/kg, iv bid administered and measured after week relative to control; type: functional; details: Mus musculus, read-out: TGI
MDA-MB-231 [18] = assay: Antiproliferative activity against human MDA-MB-231 cells assessed as reduction in cell viability after 72 hrs by MTT assay; type: functional, cell-based; details: MDA-MB-231, 72 h, read-out: IC50
ECa-109 cell line = assay: Antiproliferative activity against human EC109 cells by MTT assay; type: functional, cell-based
[19] = Antiproliferative activity against human HCG27 cells by MTT assay; type: functional, cell-based
MKN-28 = assay: Antiproliferative activity against human MKN28 cells by MTT assay; type: functional, cell-based
MKN-45 = assay: Antiproliferative activity against human MKN45 cells by MTT assay; type: functional, cell-based
MDA-MB-468 = assay: Antiproliferative activity against human MDA-MB-468 cells assessed as reduction in cell viability after 72 hrs by MTT assay; type: functional, cell-based; details: MDA-MB-468, 72 h
A549 [20] = assay: Antiproliferative activity against human A549 cells assessed as reduction in cell viability after 72 hrs by MTT assay; type: functional, cell-based; details: A549, 72 h
A549/TR = assay: Antiproliferative activity against human A549/TR cells assessed as reduction in cell viability after 72 hrs by MTT assay; type: functional, cell-based
A549/CDDP = assay: Antiproliferative activity against human A549/CDDP cells assessed as reduction in cell viability after 72 hrs by MTT assay; type: functional, cell-based
HepG2 [21] = assay: Antiproliferative activity against human HepG2 cells assessed as reduction in cell viability after 72 hrs by MTT assay; type: functional, cell-based; details: HepG2, 72 h
HCT-116 [22] = assay: Antiproliferative activity against human HCT116 cells assessed as reduction in cell viability after 72 hrs by MTT assay; type: functional, cell-based; details: HCT-116, 72 h
U-251 = assay: Antiproliferative activity against human U251 cells assessed as reduction in cell viability after 72 hrs by MTT assay; type: functional, cell-based; details: U-251, 72 h
HGC-27 = assay: Antiproliferative activity against human HGC27 cells assessed as reduction in cell viability after 48 hrs by MTT assay; type: functional, cell-based; details: HGC-27, 48 h
[23] = Antiproliferative activity against human GBM2 cells assessed as reduction in cell viability after 72 hrs by MTT assay; type: functional, cell-based; details: GBM2, 72 h
[24] = Antiproliferative activity against human GBM95 cells assessed as reduction in cell viability after 72 hrs by MTT assay; type: functional, cell-based
HCT-116 [25] = assay: Antiproliferative activity against human HCT116 cells by MTT assay; type: functional, cell-based
K562 = assay: Antiproliferative activity against human K562 cells by MTT assay; type: functional, cell-based
LoVo = assay: Antiproliferative activity against human LoVo cells by MTT assay; type: functional, cell-based

N#Cc1ccccc1Cn1cc(CNc2ccc3oc(-c4ccccc4)cc(=O)c3c2)nn1
GI50 (MDA-MB-231 [1]): 0.11 to 1 µM
GI50 [2]: 0.11 to 1 µM
GI50 (IMR-32): 0.11 to 1 µM

C#Cc1cccc(Nc2ncnc3cc(OCCOC)c(OCCOC)cc23)c1 [ERLOTINIB]
IC50 (PC-3 [3]): 11.6 to 26.9 µM
IC50 (HepG2 [4]): 11.6 to 26.9 µM
IC50 (HCT-116 [5]): 11.6 to 26.9 µM
IC50 (MCF7 [6]): 11.6 to 26.9 µM
IC50 [7]: 29.5 µM
IC50 (Erythrocyte): 16.2 µM
IC50 (PBMC): 20.5 µM

O=c1[nH]cc(F)c(=O)[nH]1 [FLUOROURACIL]
IC50 (MCF7 [8]): 30 mg/L (≈ 231 µM)
IC50 (PC-3 [3]): 1.6 to 1.9 µM
IC50 (MDA-MB-231 [9]): 1.6 to 1.9 µM
IC50 (HepG2 [10]): 7.22 to 10.3 µM
IC50 (A549 [11]): 2.42 to 3.61 µM
IC50 (A549 [12]): 4.3 to 49 µM
IC50 (HBL-100): 4.3 to 49 µM
IC50 (HeLa [13]): 4.3 to 49 µM
IC50 (SW1573): 4.3 to 49 µM
IC50 (T47D): 4.3 to 49 µM
IC50 (WiDr): 4.3 to 49 µM
IC50 (hTERT-BJ): 5.5 µM
IC50 (HeLa [14]): 1.6 to 1.9 µM
IC50 (HepG2 [4]): 1.6 to 1.9 µM
IC50 (MCF7 [15]): 7.5 to 12.7 µM
IC50 (HT-29): 2.42 to 3.61 µM
IC50 (PC-3 [16]): 2.42 to 3.61 µM
IC50 (U-87 MG): 2.42 to 3.61 µM
IC50 (MGC-803): 6.5 to 14.6 µM
IC50 (SK-N-SH): 7.22 to 10.3 µM
inhibition in vivo at 20 mg/kg (A549 [17]): 64.7%
IC50 (MDA-MB-231 [18]): 7.5 to 12.7 µM
IC50 (ECa-109 cell line): 6.5 to 14.6 µM
IC50 [19]: 6.5 to 14.6 µM
IC50 (MKN-28): 6.9 to 19.4 µM
IC50 (MKN-45): 6.9 to 19.4 µM
IC50 (MDA-MB-468): 7.5 to 12.7 µM

CC(C)=CCC[C@]1(C)C=Cc2c(O)c3c(c(CC=C(C)C)c2O1)O[C@]12C(=C[C@@H]4C[C@H]1C(C)(C)O[C@@]2(C/C=C(/C)C(=O)O)C4=O)C3=O [GAMBOGIC ACID]
IC50 (A549 [20]): 0.29 to 4.67 µM
IC50 (A549/TR): 0.29 to 4.67 µM
IC50 (A549/CDDP): 0.29 to 4.67 µM
IC50 (HepG2 [21]): 0.29 to 4.67 µM
IC50 (HCT-116 [22]): 0.29 to 4.67 µM
IC50 (U-251): 0.29 to 4.67 µM

COc1ccc2c(c1)[nH]c1c(C)nccc12 [HARMINE]
IC50 (MCF7 [15]): 3.52 to 24.4 µM
IC50 (HT-29): 3.52 to 24.4 µM
IC50 (PC-3 [16]): 3.52 to 24.4 µM
IC50 (HGC-27): 3.52 to 24.4 µM

Cn1nnc2c(C(N)=O)ncn2c1=O [TEMOZOLOMIDE]
IC50 [23]: 1130 µM
IC50 [24]: 625 µM

O=C(CCCCCCC(=O)Nc1ccccc1)NO [VORINOSTAT]
IC50 (HCT-116 [25]): 4.95 to 7.11 µM
IC50 (HepG2 [10]): 4.95 to 7.11 µM
IC50 (K562): 4.95 to 7.11 µM
IC50 (LoVo): 4.95 to 7.11 µM
